Results published in patent publication US8399026B2, “Peptides isolated from spider venom, and uses thereof” (priority 2009, dated 2013).
“Also recorded” adds a separate entry of the source.

Experiments:
spinal-ligated rats = type: in vivo, rat
Method: This study aimed to evaluate the analgesic indications of compound C using the Chung model of neuropathic pain in rats. This study was performed at PsychoGenics, Inc., headquartered at 765 Old Saw Mill River Road, Tarrytown, N.Y.
Male Sprague Dawley rats (100-125 g) from Harlan (Indianapolis, Ind.) were used in the study. Upon receipt, rats were assigned unique identification numbers and were group housed with 3 rats per cage in polycarbonate cages with micro-isolator filter tops. All rats were examined, handled, and weighed prior to initiation of the study to assure adequate health and suitability. During the course of the study, 12/12 light/dark cycles were maintained, with lights on at 7:00 am EST. The room temperature was maintained between 20 and 23° C. with a relative humidity maintained around 50%. Chow and water were provided ad libitum for the duration of the study.
All compounds were administered at a dose volume of 5 ml/kg, q.d. for 5 days (Days 17-21 post-surgery). Reference compound: Gabapentin (100 mg/kg; TRC, Lot No. 1-SWM-154-1) was dissolved in 0.5% carboxy-methylcellulose (CMC) in water and administered orally. Test Compound: Compound C (0.25, 0.625, and 1.25 mg/kg; Lot n/a) was dissolved in distilled H2O to a stock concentration (20×), divided into single-use aliquots, and frozen. On each test day, one aliquot was thawed and diluted 20-fold with PBS (pH 7.2), and used as stock for formulation of test doses. Compound C was administered subcutaneously.
Under general anesthesia with continuous inhalation of isoflurane, surgery was performed with aseptic procedures in surgery unit. The skin at the area of the lower lumber and sacral level of the rat was shaved and disinfected with betadine and alcohol. Sterile ophthalmic ointment was used to lubricate the eyes. Animals were observed continuously for the level of anesthesia, testing for the animal's reflex response to tail or paw pinch and closely monitoring the animal's breathing. A heating pad was used to maintain body temperature at 37° C. while the animals recovered from anesthesia. A left longitudinal incision at the level next to the vertebral column was made and the left paraspinal muscles were separated. The transverse process of L6 was removed and nearby connective tissue cleaned to expose L5 and L6 spinal nerves. After the nerves were isolated and clearly visualized, 4-0 silk threads were used to ligate the left L5. The muscles were sutured with 4-0 silk threads and the wound closed by staples. All rats received an analgesic (buprenorphine, 0.05 mg/kg, s.c.) immediately before and 6 hours after surgery. Each rat was monitored until awake and moving freely around the recovery chamber. Animals were then single-housed for the duration of the study. Rats were allowed to recover for 2 weeks after surgery prior to testing.
Withdrawal from a mechanical stimulus was measured by applying von Frey (VF) filaments of ascending bending force to the plantar surface of the hind paws (ipsilateral and contralateral). A positive response was defined as withdrawal from the von Frey filament. Confirmation of the paw withdrawal threshold (PWT) is tested by assessing the response to the filament above and below the withdrawal response.
Rats were brought to the experimental room and allowed to habituate in the room for one hour prior to testing, and acclimated to the observation chambers for 15 minutes prior to taking PWT measurements.
Pre-operative baseline testing: Prior to surgery, all rats were tested using the VF test.
Post-operative baseline testing: On Day 14 following surgery, baseline responses were taken from all surgically-operated rats, and an ipsilateral PWT greater than 4.5 g was used as an exclusion criterion (13 rats excluded). Rats were subsequently balanced and assigned to treatment groups (n=10 per group) based on their post-op PWT values. […]

[1] = test system: mouse embryonic stem cells derived cardiomyocytes (mES-CM); type: cell-based
[2] = baseline of group assigned to 100 mg/kg, mean ± SEM

| SMILES | ipsilateral paw withdrawal threshold compared to vehicle, chronic (spinal-ligated rats; 100 mg/kg orally q.d. 5 days, Day 21, all time points) | ipsilateral paw withdrawal threshold compared to vehicle, acute (spinal-ligated rats; 100 mg/kg orally, Day 17, data collapsed across 1 and 3 hour time points) | time dependence of effect on ipsilateral paw withdrawal threshold, chronic (spinal-ligated rats; 100 mg/kg orally, Day 21, 1 hr. versus 3 hr. post-administration) | ipsilateral paw withdrawal threshold (PWT), summary (spinal-ligated rats; 100 mg/kg, acute or 5-day administration, 1 and 3 hours following administration) | Contralateral paw withdrawal threshold prior to drug administration (spinal-ligated rats; [2]) | Ipsilateral paw withdrawal threshold prior to drug administration (spinal-ligated rats; [2]) | signs of sedation or toxicity (spinal-ligated rats; during pretreatment or testing, gabapentin 100 mg/kg orally, compound C 0.25, 0.625, 1.25 mg/kg subcutaneously) | effect of positive control on action potential generation in cardiomyocytes [1] |
| --- | --- | --- | --- | --- | --- | --- | --- | --- |
| NCC1(CC(=O)O)CCCCC1 [Gabapentin] | significantly increased | significantly increased | significantly greater at 1 hr. compared to 3 hr. post-administration | significantly increased | 48.70 ± 5.83 | 2.94 ± 0.29 | not observed | – |
| NC1=N[C@H](O)[C@H]2[C@H]3O[C@]4(O)O[C@@H]([C@@H](O)[C@@]2(N1)[C@@H]4O)[C@]3(O)CO [TTX, Tetrodotoxin] | – | – | – | – | – | – | – | only the higher dose inhibited action potential generation; also recorded: quite evident; also recorded: significant action |
